In US6821994B2, “Carboxylic acid derivative and a pharmaceutical composition containing the derivative as active ingredient” (Ono Pharmaceutical Co., Ltd., priority 1998, dated 2004):

Columns and labels:
human PPARα = target: T1, human PPARα (Homo sapiens, UniProt Q07869); assay: Luciferase assay using human PPARα (Gal4-PPARα ligand binding domain chimeric receptor, CV-1 host cells); format: cell-based; settings: PPARα agonistic activity; compound 10 μM; luciferase activity of carbacyclin (10 μM) defined as 1.0; CV-1 cells
T1 construct: expressed in transfected cells; host or cells: CV-1 cells
T1 sequence (Q07869 167-468): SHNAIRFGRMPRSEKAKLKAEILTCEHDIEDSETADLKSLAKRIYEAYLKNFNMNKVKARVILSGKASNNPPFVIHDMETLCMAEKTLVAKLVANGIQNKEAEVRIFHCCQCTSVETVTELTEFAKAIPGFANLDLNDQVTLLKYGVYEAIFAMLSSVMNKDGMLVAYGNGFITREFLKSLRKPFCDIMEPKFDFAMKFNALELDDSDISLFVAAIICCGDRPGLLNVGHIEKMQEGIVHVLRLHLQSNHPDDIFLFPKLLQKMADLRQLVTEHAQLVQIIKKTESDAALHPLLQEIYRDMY

human PPARγ = target: T2, human PPARγ (Homo sapiens, UniProt P37231); assay: Luciferase assay using human PPARγ (Gal4-PPARγ ligand binding domain chimeric receptor, CV-1 host cells); format: cell-based; settings: PPARγ agonistic activity; compound 10 μM; luciferase activity of troglitazone (10 μM) defined as 1.0; CV-1 cells
T2 construct: expressed in transfected cells; host or cells: CV-1 cells
T2 sequence (P37231 204-505): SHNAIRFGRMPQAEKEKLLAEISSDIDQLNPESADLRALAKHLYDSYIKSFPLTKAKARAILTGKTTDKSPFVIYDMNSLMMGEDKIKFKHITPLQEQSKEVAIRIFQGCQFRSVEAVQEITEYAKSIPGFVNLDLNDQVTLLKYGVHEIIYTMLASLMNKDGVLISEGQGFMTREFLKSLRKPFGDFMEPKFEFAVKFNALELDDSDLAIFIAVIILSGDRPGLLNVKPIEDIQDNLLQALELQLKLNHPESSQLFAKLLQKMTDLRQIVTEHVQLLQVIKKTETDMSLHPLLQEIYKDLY

KKAy/Ta mice = assay: Hypoglycemic and hypolipidemic effects in KKAy/Ta mice; format: in vivo; settings: male KKAy/Ta mice, food mixture containing 0.03% (w/w) compound (43-47 mg/kg/day conversion value), 4 days; for TG level: control 439 ± 234; for blood sugar level: control 520 ± 147
Text: Male, 7-weeks old KKAy/Ta mice weighed from 35 to 40 g (five mice per group) were pre-breaded for approximately one week and acclimatized for three days on milled diet. On the first day of the experiment (Day 0), mice were divided into some groups according to weight, plasma glucose and triglyceride (TG) levels to minimize the differences among groups. […] At 13:00 of the third day, blood samples were collected to measure glucose and TG levels. Additionally, there was no significant difference in the food intake between control group (milled diet only) and compounds-treated group (milled diet containing 0.03% compounds).

SD rats = assay: Hypocholesterolemic and hypolipidemic effects in SD rats given hypercholesterolemic food; format: in vivo; settings: male SD rats, orally in 0.5% CMC, then hypercholesterolemic food, blood at 9:00 of the next day; for IG level: control 163 ± 18; for IC level: control 167 ± 13; for NEFA level: control 615 ± 80
Text: Male, six-weeks old SD rats (five rats per group) were left to take milled diet and water ad libitum and were acclimatized for 1 week.
At 9:00 on the first day of the experiment (Day 0), blood sampling was done from tail vein. The rats were divided into some groups according to body weight, triglyceride (TG), non-esterified fatty acid (NEFA) and total cholesterol (TC) levels to minimize differences of the parameters among the groups. At 17:00 of the day, the compound of the present invention dissolved in 0.5% aqueous solution of carboxymethylcellulose (CMC) was orally administered, and thereafter, with hypercholesterolemic food (5.5% peanut oil, 1.5% cholesterol and 0.5% cholic acid were mixed with milled CRF-1 diet, Charles River Inc.) was given to the rats.
At 9:00 of the next day, blood sampling was done from tail vein. The lipid levels in blood (TG, NEFA and TC levels) after administration of the compounds of the present invention were measured. There was no significant difference of the food intake between the control group (provided only 0.5% CMC) and the group treated with the compounds of the present invention.

SMILES	Relative Activity to a positive control compound (carbacyclin = 1) (human PPARα)	Relative Activity to a positive control compound (troglitazone = 1) (human PPARγ)	TG level (KKAy/Ta mice)	blood sugar level (KKAy/Ta mice)	IG level (SD rats)	IC level (SD rats)	NEFA level (SD rats)
Cc1oc(-c2ccccc2)nc1Cc1ccc(/C=C/CSCC(=O)O)o1 [Example 3, 2-((2E)-3-(5-(5-methyl-2-phenyloxazol-4-ylmethyl)furan-2-yl)-2-propenylthio)acetic acid]	2.6	2.3	43 ± 12 mg/dL	260 ± 37 mg/dL	73 ± 7 mg/dL	87 ± 5 mg/dL	207 ± 25 µEq/l
Cc1oc(-c2ccc3c(c2)OCO3)nc1Cc1ccc(/C=C/CSCC(=O)O)o1 [Example 3(2), 2-((2E) -3-(5-(5-methyl-2-(1,3-dioxaindan-5-yl)oxazol-4-ylmethyl)furan-2-yl)-2-propenylthio)acetic acid]	3.1	2.3	45 ± 12 mg/dL	243 ± 37 mg/dL	62 ± 7 mg/dL	86 ± 6 mg/dL	145 ± 18 µEq/l
Cc1ccc(-c2nc(Cc3ccc(/C=C/CSCC(=O)O)o3)c(C)o2)cc1 [Example 3(1), 2-((2E)-3-(5-(5-methyl-2-(4-methylphenyl)oxazol-4-ylmethyl)furan-2-yl)-2-propenylthio)acetic acid]	1.5	1.1	44 ± 11 mg/dL	253 ± 27 mg/dL	92 ± 26 mg/dL	107 ± 4 mg/dL	394 ± 49 µEq/l
CCc1ccc(-c2nc(Cc3ccc(/C=C/CSCC(=O)O)o3)c(C)o2)cc1 [Example 3(3), 2-((2E)-3-(5-(5-methyl-2-(4-ethylphenyl)oxazol-4-ylmethyl)furan-2-yl)-2-propenylthio)acetic acid]	1.8	2.2	31 ± 15 mg/dL	234 ± 31 mg/dL	79 ± 12 mg/dL	91 ± 4 mg/dL	213 ± 31 µEq/l
